PMC9603170, “Protein Kinase C Inhibitors Reduce SARS-CoV-2 Replication in Cultured Cells” (Microbiology Spectrum, 2022)
Read-outs that look alike come from different tables or passages of the source.

Columns and labels:
[1] = tested on: Zika virus (ZIKV) replicon; experiment: ZIKV replicon luciferase assay in BHK-21 cells; assay type: cell-based; settings: both 6 and 24 h posttransfection
Procedure: FIG 4 PKC inhibitors play an antiviral role during the early stage of SARS-CoV-2 replication. (A to E) Effect of PKC inhibitors on protein translation. BHK-21 cells were pretreated with DMSO or the indicated inhibitors for 1 h, followed by transfection with SARS-CoV-2 replicon RNA, GFP- or Renilla luciferase-expressing plasmids, or ZIKV replicon RNA. Luciferase assays or Western blot assays were performed at the indicated hours after transfection. MW, molecular weight; RLU, relative luciferase units. (F) Effect of PKC inhibitors on 3CL^pro activity. The protein activities were determined using a 2019 nCoV M^pro/3CL^pro inhibitor screening kit. SARS-CoV-2 3CL^pro, the substrate, and the inhibitors were incubated at 37°C for 5 min, and […] were measured at 490 nm using a multimode plate reader. […] P values were calculated by ANOVA with Dunnett’s multiple-comparison test or unpaired, two-tailed Student’s t tests (*, P < 0.05; **, P < 0.01; ***, P < 0.001; ****, P < 0.0001; NS, not significant).
To test whether these inhibitors specifically block viral protein translation, we compared the expression levels of ectopically expressed green fluorescent protein (GFP) or Renilla luciferase in the absence and presence of the PKC inhibitor. At 24 h posttransfection, the GFP protein levels or relative Renilla luciferase activities were determined by a Western blot or luciferase assay. […]

[2] = tested on: GFP- or Renilla luciferase-expressing plasmids; assay type: cell-based, hamster; settings: BHK-21, 24 h posttransfection; for GFP levels vs DMSO-treated cells: Western blot
[3] = tested on: wild-type SARS-CoV-2; assay type: cell-based; settings: A549-ACE2; pretreated 1 h; MOI 0.8; 24 h p.i.; DMSO 20%
[4] = tested on: SARS-CoV-2 replicon; experiment: microbe, parasite or virus in culture; assay type: cell-based; settings: human Huh7 cells, read-out: IC50, SARS-CoV-2 replicon luciferase activity
[5] = tested on: SARS-CoV-2 pseudovirus; assay type: cell-based; settings: pretreated 1 h, % of DMSO
[6] = tested on: SARS-CoV-2 replicon; experiment: microbe, parasite or virus in culture; assay type: cell-based; settings: for IC50: BHK-21 cells, read-out: IC50, SARS-CoV-2 replicon luciferase activity
[7] = tested on: A549-ACE2 cells; experiment: CCK8 cell viability assay in A549-ACE2 cells; assay type: cell-based, human
Procedure: (§1) Cell viabilities were analyzed using cell counting kit 8 (CCK8) (catalog no. HY-K0301; MCE) according to the manufacturer’s instructions. Ten microliters of the CCK8 reagent was added to each well of a 96-well plate. After incubation at 37°C for 1 h, optical density (OD) values were measured at 450 nm using a BioTek instrument. The CC50 was calculated by nonlinear regression analysis.

[8] = tested on: Huh7 cells; experiment: CCK8 cell viability assay in Huh7 cells; assay type: cell-based, human; settings: human Huh7 cells; 24 h
Procedure: as §1

[9] = tested on: BHK-21 cells; experiment: CCK8 cell viability assay in BHK-21 cells; assay type: cell-based, hamster; settings: 24 h
Procedure: as §1

[10] = tested on: wild-type SARS-CoV-2; experiment: Wild-type SARS-CoV-2 infection of A549-ACE2 cells, qRT-PCR of supernatant viral RNA; assay type: cell-based; settings: 10 μM inhibitor, MOI 0.8, 24 h p.i.
[11] = biological target: T1, SARS-CoV-2 3CL^pro (Severe acute respiratory syndrome coronavirus 2, UniProt P0DTD1); assay type: biochemical; settings: 37°C, 5 min incubation
T1 construct: One microliter of SARS-CoV-2 3CL^pro reagent; purchased Beyotime P0312S

[12] = CCK8 cell viability assay in A549-ACE2 cells; assay type: cell-based, human; settings: human
Procedure: as §1

[13] = CCK8 cell viability assay in Huh7 cells; assay type: cell-based, human
Procedure: as §1

[14] = CCK8 cell viability assay in BHK-21 cells; assay type: cell-based, hamster
Procedure: as §1

[15] = BHK-21 cells, read-out: CC50 (CCK8 cell viability)
[16] = BHK-21, pretreated 1 h, […], vs DMSO
[17] = Severe acute respiratory syndrome coronavirus 2, Huh-7, 24 h
[18] = Severe acute respiratory syndrome coronavirus 2, pretreated 1 h, […]
[19] = human Huh7 cells, 24 h, read-out: CC50 (CCK8 cell viability)

COc1ccc2c(c1)c(C1=C(c3c[nH]c4ccccc34)C(=O)NC1=O)cn2CCCN(C)C [Go 6983]
replication levels of the ZIKV replicon [1]: barely affected | Renilla luciferase activities vs DMSO-treated cells [2]: comparable | GFP levels vs DMSO-treated cells [2]: comparable | percentage of N-positive cells [3]: 12% | IC50 [4]: 0.361 µM | luciferase activity of pseudovirus relative to DMSO-treated cells (entry) [5]: about 35% | relative luciferase activity lower than that in DMSO-treated cells [6]: about 99% | replicon luciferase activities at all tested time points vs DMSO [6]: constantly lower | IC50 ([6]; pretreated 1 h, […]): 0.087 µM | CC50 [7]: 50 µM | CC50 [8]: 24.9 µM | CC50 [9, 15]: 16.9 µM | viral RNA level in supernatant, fold lower than DMSO [10]: about 12 fold

CN(C)CCCn1cc(C2=C(c3c[nH]c4ccccc34)C(=O)NC2=O)c2ccccc21 [bisindolylmaleimide I]
replication levels of the ZIKV replicon [1]: barely affected | Renilla luciferase activities vs DMSO-treated cells [2]: comparable | GFP levels vs DMSO-treated cells [2]: comparable | percentage of N-positive cells [3]: 3% | IC50 [4]: 0.413 µM | luciferase activity of pseudovirus relative to DMSO-treated cells (entry) [5]: ~24% | relative luciferase activity lower than that in DMSO-treated cells [6]: ~96% | replicon luciferase activities at all tested time points vs DMSO [6]: constantly lower | IC50 ([6]; pretreated 1 h, […]): 0.386 µM | CC50 [7]: 50.9 µM | CC50 [8]: 30 µM | CC50 [9, 15]: 15.9 µM | viral RNA level in supernatant, fold lower than DMSO [10]: ~16 fold

O=c1c2ccccc2[se]n1-c1ccccc1 [ebselen]
replicon luciferase activity at 6 h (protein translation / polyprotein cleavage) [6, 16]: reduced | SARS-CoV-2 3CLpro protease activity [11]: dramatically reduced

Cn1cc(C2=C(c3cn(C4CCN(Cc5ccccn5)CC4)c4ccccc34)C(=O)NC2=O)c2ccccc21 [enzastaurin]
percentage of N-positive cells [3]: 12% | IC50 [4, 17]: 0.93 µM | luciferase activity of pseudovirus relative to DMSO-treated cells (entry) [5]: ~42% | relative luciferase activity lower than that in DMSO-treated cells [6]: ~92% | replicon luciferase activities at all tested time points vs DMSO [6]: constantly lower | IC50 [6, 18]: 0.929 µM | CC50 [12]: 80 µM | CC50 at 24 h ([13]; human): 86.4 µM | CC50 at 24 h ([14]; hamster, CC50 (CCK8 cell viability)): > 160 µM | CC50 ([9]; hamster): 160 µM | viral RNA level in supernatant, fold lower than DMSO [10]: ~3 fold

CCC(CC)COC(=O)[C@H](C)N[P@](=O)(OC[C@H]1O[C@@](C#N)(c2ccc3c(N)ncnn23)[C@H](O)[C@@H]1O)Oc1ccccc1 [remdesivir]
replicon luciferase activity at 6 h (protein translation / polyprotein cleavage) [6, 16]: did not alter | replicon luciferase activity at 24 h (RNA synthesis) [6, 16]: significantly reduced

CC(=O)c1c(O)c(C)c(O)c(Cc2c(O)c3c(c(C(=O)/C=C/c4ccccc4)c2O)OC(C)(C)C=C3)c1O [rottlerin]
IC50 [4, 17]: 0.33 µM | IC50 [6, 18]: 0.479 µM | CC50 at 24 h [13, 19]: 4.46 µM | CC50 at 24 h ([14]; hamster; BHK-21 cells; 24 h; read-out: CC50 (CCK8 cell viability)): 1.43 µM

CN1CCN(c2nc(C3=C(c4c[nH]c5ccccc45)C(=O)NC3=O)c3ccccc3n2)CC1 [sotrastaurin]
IC50 [4, 17]: 1.9 µM | luciferase activity of pseudovirus relative to DMSO-treated cells (entry) [5]: ~55% | relative luciferase activity lower than that in DMSO-treated cells [6]: ~89% | replicon luciferase activities at all tested time points vs DMSO [6]: constantly lower | IC50 [6, 18]: 2.67 µM | CC50 at 24 h [13, 19]: 50.8 µM | CC50 at 24 h ([14]; hamster, BHK-21 cells; 24 h; read-out: CC50 (CCK8 cell viability)): 82.2 µM
